The METLIN SMRT retention time set (Domingo-Almenara et al. 2019)
Each block holds one compound with its values, some of them ahead of it.

Assay: gradient 5% acetonitrile 3 min, to 50% in 2 min, to 85% in 15 min, held 3 min, 100 µL/min
Details: column: Zorbax Extend-C18 2.1 x 50 mm; eluents: water / acetonitrile, 0.1% formic acid
How it was run: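 A Zorbax Extend-C18 column (2.1 × 50 mm, 1.8 μm) run at 100 μL/min with water and acetonitrile, both containing 0.1% formic acid, separated mixtures of ~100 pure standards. The HPLC was coupled to a quadrupole time-of-flight mass spectrometer operated in positive and negative ionization mode, with dead and dwell volumes of 40 μL and 900 μL. Each retention time was taken from a computationally picked adduct peak that was then manually inspected.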

SMILES: CCC1CN(C(=O)N2CCC(C(=O)NCCCN3CCN(C)CC3)CC2)c2cc(C)ccc2O1 (stereo not drawn)
RP-LC retention time: 617 s

SMILES: COc1ccc(CCNC(=O)c2ccco2)cc1OC
RP-LC retention time: 642 s

SMILES: Cc1nnc(NC(=O)c2cc(C3CC3)n(C3CCS(=O)(=O)C3)n2)s1 (stereo not drawn)
RP-LC retention time: 646 s

SMILES: Cc1ccc(-c2csc3c(=O)n(Cc4ccccn4)cnc23)cc1
RP-LC retention time: 889 s

SMILES: COc1ccccc1-c1nc(Cn2ccn3nc(-c4ccc5c(c4)OCO5)cc3c2=O)c(C)o1
RP-LC retention time: 960 s

SMILES: O=C1CCN([C@@H]2O[C@H](CO)[C@@H](O)[C@H]2O)C(=O)N1
RP-LC retention time: 933 s

SMILES: CCCCC(SC1=Nc2ccccc2C2=NC(Cc3c[nH]c4ccccc34)C(=O)N12)C(=O)OCC (stereo not drawn)
RP-LC retention time: 1110 s

SMILES: CCc1cccc2c3c([nH]c12)[C@@](CC)(CC(=O)O)OCC3
RP-LC retention time: 925 s

SMILES: COc1ccccc1/C=C/C(=O)N1CCC(c2cc(N)on2)CC1
RP-LC retention time: 720 s

SMILES: O=S(=O)(c1ccc2c(c1)-c1oncc1CO2)N1CCN(Cc2ccc3c(c2)OCO3)CC1
RP-LC retention time: 666 s

SMILES: CCc1nc(-c2csc(S(=O)(=O)N3CCCC(C(=O)Nc4cc(C)ccc4OC)C3)c2)no1 (stereo not drawn)
RP-LC retention time: 1130 s

SMILES: COc1cc2c(cc1CNC(=O)c1cccs1)OCCCO2
RP-LC retention time: 780 s

SMILES: O=C(NCc1cccc(C(F)(F)F)c1)c1ccnc(N2CCCCC2)n1
RP-LC retention time: 1140 s

SMILES: O=C(CC1CCN(C(=O)c2ccc3oc(C4CC4)nc3c2)CC1)NCC1CCCO1 (stereo not drawn)
RP-LC retention time: 640 s

SMILES: CC(C)C(=O)N1CCN(c2nc(CN3CCOCC3)cs2)CC1
RP-LC retention time: 569 s

SMILES: Cc1csc(-c2cc(S(=O)(=O)Nc3ccc(F)cc3F)cn2CC(=O)N2CCCC2)n1
RP-LC retention time: 880 s

SMILES: CN(CC1CCOCC1)C(=O)Nc1ccccc1Br
RP-LC retention time: 768 s

SMILES: COc1ccc2c(c1)C1(CCN(S(=O)(=O)c3ccccc3)C1)C(=O)N2C (stereo not drawn)
RP-LC retention time: 882 s

SMILES: Cc1noc2nc(CCC(=O)NCc3ccc(F)cc3Cl)nc(N3CCOCC3)c12
RP-LC retention time: 666 s

SMILES: Cc1cc(C(=O)NC2CCCC2)nn1C
RP-LC retention time: 680 s

SMILES: CCOC(=O)C1=C(CN2CCCCC2)NC(=O)NC1c1ccc(OC(C)C)cc1 (stereo not drawn)
RP-LC retention time: 646 s

SMILES: CCOc1ccccc1N1CCN(S(=O)(=O)c2nn(CC)cc2C(=O)NCCC(C)C)CC1
RP-LC retention time: 1130 s

SMILES: Cn1ncc2c(N3CCSCC3)nc(C(=O)NCc3ccccn3)nc21
RP-LC retention time: 592 s

SMILES: CN(C)C1(CC2CC2)CCN(C(=O)c2ccco2)CC1
RP-LC retention time: 556 s

SMILES: Cc1nnc2c(=O)n(CC(=O)NCc3cccc(C(F)(F)F)c3)c3cccnc3n12
RP-LC retention time: 738 s

SMILES: CC(C)CCNC(=O)CN1C(=O)CCCc2cc(S(=O)(=O)N3CCC(C)CC3)ccc21
RP-LC retention time: 938 s

SMILES: Cc1nnc(NC(=O)CCc2c(C)[nH]c(=O)[nH]c2=O)s1
RP-LC retention time: 547 s

SMILES: CCn1ccc(NC(=O)c2ccc(C)cc2C)n1
RP-LC retention time: 765 s

SMILES: Cc1ccc(NC(=O)C2CCN(c3nc(C4CCC4)nc4csc(C)c34)CC2)c(C)c1
RP-LC retention time: 804 s

SMILES: Cn1nnnc1SCC(=O)NCCn1nc(-c2cccs2)ccc1=O
RP-LC retention time: 611 s

SMILES: CC1CCN(C(=O)c2ccc3c(c2)N(CC(=O)NC(C)C)C(=O)CO3)CC1
RP-LC retention time: 684 s

SMILES: CCS(=O)(=O)N1CCCc2cc(C(=O)NC(C)(C)C)ccc21
RP-LC retention time: 826 s

SMILES: Cc1ccc(-c2nc3cnccn3c2NCCC(=O)NC2CCCC2)cc1
RP-LC retention time: 696 s

SMILES: O=C(Cc1cccc(Cl)c1)N1CC(n2cnnc2C2CC2)C1
RP-LC retention time: 655 s

SMILES: COC(=O)c1c(C)[nH]c(C(=O)N2CCCC(C(=O)NC3CCCCC3)C2)c1C (stereo not drawn)
RP-LC retention time: 759 s

SMILES: CCCCOc1ccc(-c2cc3c4nnc(CCC(=O)N5CCN(C(C)C)CC5)n4ccn3n2)cc1
RP-LC retention time: 692 s

SMILES: COCCCNC(=O)CCc1c(-c2ccc(Cl)cc2)nc2ccccn12
RP-LC retention time: 607 s

SMILES: CCOC(=O)C(=O)NCc1nc(COc2ccc(OC)cc2)no1
RP-LC retention time: 716 s

SMILES: Cc1ccc(-n2ncc3c(C)nnc(SCC(=O)N4CCC(C)CC4)c32)cc1C
RP-LC retention time: 716 s

SMILES: COc1ccc(-c2csc3c(=O)n(Cc4ccc(F)cc4)cnc23)cc1OC
RP-LC retention time: 951 s

SMILES: Cc1nc(-c2csc(S(=O)(=O)N3CCCC(C(=O)Nc4cccc(Cl)c4C)C3)c2)no1 (stereo not drawn)
RP-LC retention time: 1020 s

SMILES: O=C1OC2CC1N(C(=O)Cn1c(=O)oc3ccccc31)C2 (stereo not drawn)
RP-LC retention time: 618 s

SMILES: COc1cc(CNC(=O)COc2ccc(NC(=O)C3CC3)cn2)cc(OC)c1
RP-LC retention time: 713 s

SMILES: CCOc1ccc(C(=O)N2CCC3(C2)C(=O)Nc2ccc(OC)cc23)cc1 (stereo not drawn)
RP-LC retention time: 737 s

SMILES: Fc1cccc(-c2noc(Cc3nnc(-c4cccc(Cl)c4)o3)n2)c1
RP-LC retention time: 1110 s

Continued, values first:

RP-LC retention time: 1110 s
SMILES: Cc1ccc(NC(=O)Cn2c(C)nc3c(sc4nc(-c5ccccc5)ccc43)c2=O)cc1F

RP-LC retention time: 806 s
SMILES: Cc1ccc(-c2ccc(N3CCCC(C(=O)NCc4ccc(Br)cc4)C3)nn2)cc1 (stereo not drawn)

RP-LC retention time: 819 s
SMILES: O=C(Nc1ccc2c(c1)CN(C(=O)c1ccccc1)CC2)c1ccc(Br)o1

RP-LC retention time: 870 s
SMILES: O=C(N[C@H]1C[C@@H]2C[C@H]1N(S(=O)(=O)c1cc(F)cc(F)c1)C2)c1ccccc1

RP-LC retention time: 1300 s
SMILES: COc1cccc(-c2nc(C3CCN(S(=O)(=O)c4ccc(C(C)C)cc4)CC3)no2)c1

RP-LC retention time: 909 s
SMILES: COc1ccc(Cl)cc1S(=O)(=O)N1CCC(C(=O)NCCc2ccccc2)CC1

RP-LC retention time: 801 s
SMILES: COc1ccc(OC)c(CNC(=O)c2cccc3c2SCCC3=O)c1

RP-LC retention time: 679 s
SMILES: O=C(O)COc1ccc(OCCNC[C@H](O)COc2ccccc2)cc1

RP-LC retention time: 622 s
SMILES: Cc1ccn2cc(-c3ccc(NC(=O)c4ccccc4[N+](=O)[O-])cc3)nc2n1

RP-LC retention time: 584 s
SMILES: Cc1cc(N2CCN(C(=O)CCc3c[nH]c4ccccc34)CC2)nc2ccccc12

RP-LC retention time: 1010 s
SMILES: CC(C)c1ccc(S(=O)(=O)N2CCC(n3c(-c4ccoc4)nc4cccnc43)C2)cc1 (stereo not drawn)

RP-LC retention time: 876 s
SMILES: O=C(Nc1ccc2c(c1)N(C(=O)c1ccccc1)CCC2)c1cccs1

RP-LC retention time: 698 s
SMILES: CS(=O)(=O)N1CCCN(C(=O)Nc2ccccc2)CCNC(=O)CC1c1ccccc1 (stereo not drawn)

RP-LC retention time: 610 s
SMILES: CN1CCC(NC(=O)c2ccc3c(c2)N(S(=O)(=O)c2ccccc2)CC3)CC1

RP-LC retention time: 952 s
SMILES: COc1ccc(-c2noc(C3CCCN3C(=O)c3ccccc3F)n2)cc1 (stereo not drawn)

RP-LC retention time: 601 s
SMILES: OCCN(Cc1ccccc1)CC(O)COc1cccc2ccccc12 (stereo not drawn)

RP-LC retention time: 855 s
SMILES: O=C(NCC1CCCO1)c1cccn1Cc1noc(-c2ccccc2)n1 (stereo not drawn)

RP-LC retention time: 1010 s
SMILES: Cc1ccc(OCC(=O)Nc2cncc(-c3nc4ccccc4o3)c2)cc1

RP-LC retention time: 657 s
SMILES: Cc1cc(C)cc(C(=O)N2CCN(c3nnc4ccccn34)CC2)c1

RP-LC retention time: 802 s
SMILES: O=C(Nc1ccc2c(c1)OCO2)C(=O)c1ccc[nH]1

RP-LC retention time: 607 s
SMILES: COc1cccc2cc(C(=O)Nc3ccc(-c4ccc(N5CCCC5)nn4)cc3)oc12

RP-LC retention time: 706 s
SMILES: Cc1ccc(Cn2c(=O)c(N3CCN(C(=O)NCc4ccco4)CC3)nc3cccnc32)cc1

RP-LC retention time: 580 s
SMILES: O=C(c1ccc(CS(=O)c2ccc(Br)cc2)o1)N1CCN(c2ccccn2)CC1 (stereo not drawn)

RP-LC retention time: 712 s
SMILES: Cn1nc(C(=O)Nc2cccc(-c3nnc4n3CCCC4)c2)c2ccccc21

RP-LC retention time: 900 s
SMILES: CC1=C(c2ccccc2)S(=O)(=O)N=C1N1CCCN(C(=O)c2ccc(F)c(F)c2)CC1

RP-LC retention time: 745 s
SMILES: Cc1ccc2c(=O)c(C(=O)c3ccc(Cl)cc3)cn(CC(=O)NCC3CCCO3)c2n1 (stereo not drawn)

RP-LC retention time: 665 s
SMILES: Cc1c(C(=O)N2CCc3nc(NC(=O)C4CCCO4)sc3C2)cnn1-c1ccccc1 (stereo not drawn)

RP-LC retention time: 865 s
SMILES: CC1CC(=O)N(CC(=O)Nc2ccc3c(c2)OCO3)c2ccccc2S1 (stereo not drawn)

RP-LC retention time: 842 s
SMILES: COc1ccc(NC(=O)Cn2c(=O)n(-c3ccccc3)c(=O)c3c2cc(C)n3C)cc1Cl

RP-LC retention time: 713 s
SMILES: Cc1ccc(NC(=O)Cn2cc(C(=O)N3CCCC3)c(=O)c3ccc(C)nc32)cc1

RP-LC retention time: 581 s
SMILES: O=C(CCc1nc2ccccc2[nH]1)N1CCC(c2noc(-c3ccccn3)n2)C1 (stereo not drawn)

RP-LC retention time: 823 s
SMILES: CC1=C(c2ccc(Cl)cc2)S(=O)(=O)N=C1N1CCCN(C(=O)c2ccco2)CC1

RP-LC retention time: 856 s
SMILES: O=C(C1CC1)N1CCc2sc(S(=O)(=O)NCc3ccc(Cl)cc3)cc2C1

RP-LC retention time: 682 s
SMILES: O=C1NCCCn2cc(S(=O)(=O)Nc3ccc(Cl)cc3)cc21

RP-LC retention time: 638 s
SMILES: Cc1nn(C(C)C(=O)NCc2ccccn2)c(=O)c2c(C)n(-c3ccccc3)nc12 (stereo not drawn)

RP-LC retention time: 674 s
SMILES: Cn1nc(C(=O)N2CCOCC2)c2c1CCN(C(=O)Nc1ccccc1Cl)C2

RP-LC retention time: 718 s
SMILES: C=CC(=O)Nc1cccc(Oc2nc(Nc3ccc(N4CCN(C)CC4)cc3OC)ncc2Cl)c1

RP-LC retention time: 669 s
SMILES: CCOc1cc(-c2ccccc2)nc2ccc(NS(=O)(=O)c3ccc(NC(C)=O)cc3)cc12

RP-LC retention time: 622 s
SMILES: O=C(Cn1cnc2ccccc2c1=O)NCCn1nc(-c2cccs2)ccc1=O

RP-LC retention time: 1170 s
SMILES: COc1nc2ccccc2nc1N1CCCC(C(=O)Nc2ccc(F)cc2F)C1 (stereo not drawn)

RP-LC retention time: 1090 s
SMILES: CCN1C(=O)c2cc(S(=O)(=O)Nc3ccc(F)c(Cl)c3)ccc2Oc2cccnc21

RP-LC retention time: 712 s
SMILES: Cc1ccccc1Cn1cc(-c2ccncc2)cc1C(=O)NCC(C)C

RP-LC retention time: 765 s
SMILES: Cc1ccc2c(Nc3ccc4c(c3)OCO4)c(C(=O)N3CCOCC3)cnc2n1
